The record followed here is US20150225404A1, “PYRIDINE DERIVATIVE AND MEDICINE” (NIPPON SHINYAKU CO., LTD., priority 2012, published 2015).

For one assay, the target named is T1, human mGluR5 (Homo sapiens, UniProt P41594).
T1 construct: expressed in transfected cells
Put plainly: Experiment for receptor function of mGluR5 (Ca2+-dependent fluorescence, FLIPR, CHO-K1 cells stably expressing human mGluR5). The note with it: L-glutamic acid 10 μM, Fluo-4 fluorescence. It is filed as cell-based. Summed up: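 Fluo-4-loaded CHO-K1 cells pre-incubated 2 min with test substance, then stimulated with L-glutamic acid (final 10 μM) in HBSS, pH 7.4. FLIPR Ca2+ fluorescence normalized to glutamate alone (100%) and glutamate with 10 μM MPEP (0%); IC50 estimated by logistic fit.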

The subject of assay [1] is male Slc:ICR mice. As to the kind of experiment: Action against formalin-induced pain behavior in mice. It is filed as in vivo. As to conditions: Mus musculus, iv, 0.1 h, 6 minutes observation, read-out: Percent inhibition of pain-related behavior time (%); for inhibition in vivo at 1 mg/kg: test substance 1 mg/kg intravenously; for inhibition in vivo at 3 mg/kg: test substance 3 mg/kg intravenously. The protocol:
4 to 6-week-old male Slc:ICR mice (available from Japan SLC, Inc.) were used. A medium or a test substance (1 mg/kg or 3 mg/kg) was intravenously administered to each mouse, and immediately thereafter, 20 μL of 1% or 5% formalin was subcutaneously administered to a right hind paw of the mouse. Thereafter, the mice were quickly put into an observation cage and measured for the total time (sec) of pain-related behavior (licking or biting behavior against the right hindlimb) during 6 minutes, and an average value of the pain-related behavior time of each group was calculated.
The intensity of an analgesic action of the test substance was evaluated in terms of percent inhibition (%) of pain-related behavior time which is calculated as {(A−B)/A×100}, wherein A is an average value of the pain-related behavior time of a medium-administered group, and B is an average value of the pain-related behavior time of a test substance-administered group.

Assay [2] relates to male Slc:ICR mice. Put plainly: Action against pain-related behavior and micturition cycle in mice with cyclophosphamide (CP)-induced acute cystitis. It counts as in vivo. The note with it: Mus musculus, iv, 0.25 h, CP 300 mg/kg i.p., 15 minutes observation; for inhibition in vivo at 3 mg/kg: test substance 3 mg/kg intravenously 3 hours after CP; for inhibition in vivo at 1 mg/kg: test substance 1 mg/kg intravenously 3 hours after CP. The protocol: An action of a test substance against visceral pain and frequent urination associated with cystitis, which was induced by intraperitoneal administration (20 mL/kg) of CP (300 mg/kg) to 4 to 5-week-old male Slc:ICR mice (available from Japan SLC, Inc.), was investigated. This experiment was performed according to a method described in European Journal of Pharmacology, 676 (2012), pp. 75-80.
Three hours after the administration of CP, a test substance (1 mg/kg or 3 mg/kg) was intravenously administered, and observation by visual inspection and video recording were performed for 15 minutes immediately thereafter. In the observation by visual inspection, four pain-related behaviors (eye opening, rounded back, leg dragging, and behavior during urination) were scored, each rated on a scale of 0-10, according to the following criteria.
Eye opening (normal: 0 point, sometimes closed or half-open eyes: 5 points, completely closed: 10 points)
Rounded back (normal: 0 point, sometimes crouched: 5 points, crouched at almost all times: 10 points)
Leg dragging (normal: 0 point, leg dragging: 10 points)
Behavior during urination (normal: 0 point, shaking hip in micturition: 10 points)
In addition, the video was played back, and the frequency of licking behavior around the abdomen as a pain-related behavior was scored, rated on a scale of 0-10, according to the following criteria.
Licking behavior around the abdomen (0 to 3 times: 0 point, 4 times to 10 times: 5 points, 11 times or more: 10 points)
Furthermore, the video was played back, and the frequency of urination (urination marks) on a filter paper was counted and taken as an index for micturition cycle.
An average value of the pain-related behavior score of each group (total score of the five items: 50 points at maximum) and an average value of the frequency of urination (urination marks) on the filter paper were determined.
The strength of an analgesic action of the test substance against the CP-induced visceral pain was evaluated in terms of percent inhibition (%) of pain-related behavior score which is calculated as {(A−B)/A×100}, wherein A is an average value of the pain-related behavior score of a medium-administered group, and B is an average value of the pain-related behavior score of a test substance-administered group.
In addition, the strength of a frequent urination inhibitory action of the test substance against the CP-induced frequent urination was evaluated in terms of percent inhibition (%) of the frequency of urination which is calculated as {(C−D)/C×100}, wherein C is an average value of the frequency of urination of a medium-administered group, and D is an average value of the frequency of urination of a test substance-administered group.

The mark [3] stands for this setting: read-out: Percent inhibition of pain-related behavior score (%).
Setting [4] is: read-out: Percent inhibition of the frequency of urination (%).

pIC50: −log10 of the molar value. Where a name gives a salt, the structure may show the parent alone.

T1 sequence (P41594 21-1212): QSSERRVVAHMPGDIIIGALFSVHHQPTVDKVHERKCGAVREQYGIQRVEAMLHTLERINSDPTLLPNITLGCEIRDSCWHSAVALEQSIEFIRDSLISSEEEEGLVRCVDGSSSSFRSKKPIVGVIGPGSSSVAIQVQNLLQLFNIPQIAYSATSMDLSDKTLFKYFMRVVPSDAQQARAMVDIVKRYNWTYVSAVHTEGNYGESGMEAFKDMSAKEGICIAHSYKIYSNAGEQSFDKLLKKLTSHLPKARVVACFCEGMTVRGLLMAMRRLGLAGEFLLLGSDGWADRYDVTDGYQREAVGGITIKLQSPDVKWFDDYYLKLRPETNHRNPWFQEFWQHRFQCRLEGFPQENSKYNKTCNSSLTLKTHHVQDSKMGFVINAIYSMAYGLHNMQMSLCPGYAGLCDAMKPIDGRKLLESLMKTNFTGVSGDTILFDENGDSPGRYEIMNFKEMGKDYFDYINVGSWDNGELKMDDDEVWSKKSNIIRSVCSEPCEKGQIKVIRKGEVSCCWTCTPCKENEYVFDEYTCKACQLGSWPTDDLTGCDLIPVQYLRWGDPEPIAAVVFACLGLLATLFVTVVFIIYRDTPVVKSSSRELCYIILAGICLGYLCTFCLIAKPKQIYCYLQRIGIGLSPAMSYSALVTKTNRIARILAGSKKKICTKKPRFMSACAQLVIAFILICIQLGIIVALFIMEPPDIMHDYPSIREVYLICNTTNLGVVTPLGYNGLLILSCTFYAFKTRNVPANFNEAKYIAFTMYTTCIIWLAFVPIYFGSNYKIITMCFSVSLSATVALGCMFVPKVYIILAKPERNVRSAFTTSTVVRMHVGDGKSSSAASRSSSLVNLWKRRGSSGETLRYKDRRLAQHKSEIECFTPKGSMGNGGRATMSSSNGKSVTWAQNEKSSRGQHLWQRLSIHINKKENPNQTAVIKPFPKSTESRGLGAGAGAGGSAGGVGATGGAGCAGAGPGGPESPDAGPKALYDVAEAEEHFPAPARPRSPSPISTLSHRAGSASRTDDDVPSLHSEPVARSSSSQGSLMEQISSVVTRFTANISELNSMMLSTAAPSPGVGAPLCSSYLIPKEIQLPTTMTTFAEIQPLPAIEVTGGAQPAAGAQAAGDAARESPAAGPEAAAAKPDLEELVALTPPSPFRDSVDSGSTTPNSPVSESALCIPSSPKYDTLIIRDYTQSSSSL

Take `Fc1ncccc1-c1cc(OCc2ccccn2)nc2c1CCC2` [Example 2, 4-(2-Fluoropyridin-3-yl)-2-(pyridin-2-ylmethoxy)-6,7-dihydro-5H-cyclopenta[b]pyridine hydrochloride]: the pIC50 (in general, −log10 of the IC50, conventionally taken in molar units) on human mGluR5 was 8.28. Also, the inhibition in vivo at 1 mg/kg with male Slc:ICR mice [1] (1% formalin) stood at 47%.
Taken in the same sequence, the figures for `N#Cc1ncccc1-c1cc(OCc2ccccn2)nc2c1CCC2` [Example 3, 3-[2-(Pyridin-2-ylmethoxy)-6,7-dihydro-5H-cyclopenta[b]pyridin-4-yl]pyridine-2-carbonitrile] were 7.92 and 25.1%.
Turning to `c1ccc(COc2cc(-c3cncnc3)c3c(n2)CCC3)nc1` [Example 12, 2-(Pyridin-2-ylmethoxy)-4-(pyrimidin-5-yl)-6,7-dihydro-5H-cyclopenta[b]pyridine hydrochloride], the inhibition in vivo at 1 mg/kg in the assay on male Slc:ICR mice [1] (1% formalin) stood at 66.8%.
As for `Fc1cccc(COc2cc(-c3cncnc3)c3c(n2)CCC3)c1` [Example 15, 2-[(3-Fluorobenzyl)oxy]-4-(pyrimidin-5-yl)-6,7-dihydro-5H-cyclopenta[b]pyridine], in the assay with male Slc:ICR mice [1] (5% formalin), the inhibition in vivo at 1 mg/kg came out at 64%.
Turning to `N#Cc1cccc(COc2cc(-c3cncnc3)c3c(n2)CCC3)c1` [Example 23, 3-({[4-(Pyrimidin-5-yl)-6,7-dihydro-5H-cyclopenta[b]pyridin-2-yl]oxy}methyl)benzonitrile], the negative logarithm of the IC50 (pIC50) on human mGluR5 is 7.41. Further, the inhibition in vivo at 1 mg/kg in the assay with male Slc:ICR mice [1] (5% formalin) stood at 47.9%.
On human mGluR5, `Cc1ncc(-c2cc(OCc3ccccn3)nc3c2CCC3)cn1` [Example 36, 4-(2-Methylpyrimidin-5-yl)-2-(pyridin-2-ylmethoxy)-6,7-dihydro-5H-cyclopenta[b]pyridine hydrochloride] showed a pIC50 of 7.15. Further, the figures for the inhibition in vivo at 3 mg/kg with male Slc:ICR mice [2] (setting [3]) and in the assay with male Slc:ICR mice [2] (setting [4]) were 40.4% and 31.3%, respectively.
At human mGluR5, `Cc1ncc(-c2cc(OCc3cccc(C#N)n3)nc3c2CCC3)cn1` [Example 46, 6-({[4-(2-Methylpyrimidin-5-yl)-6,7-dihydro-5H-cyclopenta[b]pyridin-2-yl]oxy}methyl)pyridine-2-carbonitrile] gave a pIC50 of 6.68. In addition, the inhibition in vivo at 1 mg/kg with male Slc:ICR mice [2] (setting [3]) was 22%; with male Slc:ICR mice [2] (setting [4]), 31.5%.
Turning to `c1ccc(COc2cc(-c3cccnc3)c3c(n2)CCCC3)nc1` [Example 82, 4-(Pyridin-3-yl)-2-(pyridin-2-ylmethoxy)-5,6,7,8-tetrahydroquinoline], the pIC50 against human mGluR5 is 6.82. For the same molecule, the inhibition in vivo at 3 mg/kg in the assay on male Slc:ICR mice [1] (1% formalin) is 59.8%.
On to `c1cnc(COc2cc(-c3cccnc3)c3c(n2)CCCC3)nc1` [Example 90, 4-(Pyridin-3-yl)-2-(pyrimidin-2-ylmethoxy)-5,6,7,8-tetrahydroquinoline], for which, on human mGluR5, the negative-log IC50 (pIC50) was 6.82. Moreover, the inhibition in vivo at 1 mg/kg in the assay with male Slc:ICR mice [1] (5% formalin) amounted to 54.3%.
For `c1ccc(COc2cc(-c3cncnc3)c3c(n2)CCCC3)nc1` [Example 143, 2-(Pyridin-2-ylmethoxy)-4-(pyrimidin-5-yl)-5,6,7,8-tetrahydroquinoline hydrochloride], the pIC50 against human mGluR5 was 7.42. Besides, the figures for the inhibition in vivo at 3 mg/kg in the assay on male Slc:ICR mice [2] (setting [3]) and with male Slc:ICR mice [2] (setting [4]) were 52.2% and 47.7%, respectively.
`Fc1cccnc1COc1cc(-c2cncnc2)c2c(n1)CCCC2` [Example 147, 2-[(3-Fluoropyridin-2-yl)methoxy]-4-(pyrimidin-5-yl)-5,6,7,8-tetrahydroquinoline]: the negative logarithm of the IC50 (pIC50) against human mGluR5 is 7.71. Moreover, the inhibition in vivo at 3 mg/kg in the assay on male Slc:ICR mice [2] (setting [3]) was found to be 38.8%; in the assay with male Slc:ICR mice [2] (setting [4]) it was 21.1%.
Taken in the same sequence, the figures for `Fc1ccc(F)c(COc2cc(-c3cncnc3)c3c(n2)CCCC3)n1` [Example 148, 2-[(3,6-Difluoropyridin-2-yl)methoxy]-4-(pyrimidin-5-yl)-5,6,7,8-tetrahydroquinoline] were 7.66, 45.7% and 31.5%.
On to `c1cnc(COc2cc(-c3cncnc3)c3c(n2)CCCC3)cn1` [Example 163, 2-(Pyrazin-2-ylmethoxy)-4-(pyrimidin-5-yl)-5,6,7,8-tetrahydroquinoline], for which the inhibition in vivo at 3 mg/kg in the assay on male Slc:ICR mice [1] (5% formalin) was 37.2%.
`c1ncc(-c2cc(OCc3nccs3)nc3c2CCCC3)cn1` [Example 164, 4-(Pyrimidin-5-yl)-2-(1,3-thiazol-2-ylmethoxy)-5,6,7,8-tetrahydroquinoline] had a negative-log IC50 (pIC50) on human mGluR5 of 7.55. For the same molecule, the inhibition in vivo at 1 mg/kg with male Slc:ICR mice [1] (1% formalin) came out at 42.2%.
Regarding `Cc1cccc(COc2cc(-c3cnc(C)nc3)c3c(n2)CCCC3)n1` [Example 182, 2-[(6-Methylpyridin-2-yl)methoxy]-4-(2-methylpyrimidin-5-yl)-5,6,7,8-tetrahydroquinoline hydrochloride], the pIC50 against human mGluR5 is 6.91. Besides, the results for the inhibition in vivo at 3 mg/kg with male Slc:ICR mice [2] (setting [3]) and in the assay with male Slc:ICR mice [2] (setting [4]) were 26% and 43.2%, respectively.
As to `Cc1ncc(-c2cc(OCc3cccc(C#N)n3)nc3c2CCCC3)cn1` [Example 183, 6-({[4-(2-Methylpyrimidin-5-yl)-5,6,7,8-tetrahydroquinolin-2-yl]oxy}methyl)pyridine-2-carbonitrile], at human mGluR5, the pIC50 is 6.83. Also, the inhibition in vivo at 1 mg/kg was determined as 37% in the assay on male Slc:ICR mice [2] (setting [3]) and 22.7% in the assay with male Slc:ICR mice [2] (setting [4]).
Take `Nc1ncc(-c2cc(OCc3ncccc3F)nc3c2CCCC3)cn1` [Example 191, 5-{2-[(3-Fluoropyridin-2-yl)methoxy]-5,6,7,8-tetrahydroquinolin-4-yl}pyrimidin-2-amine hydrochloride]: the pIC50 at human mGluR5 was 7.44. The inhibition in vivo at 3 mg/kg with male Slc:ICR mice [2] (setting [3]) is 20.5%; in the assay with male Slc:ICR mice [2] (setting [4]), 36.5%.
As for `OCc1cncc(-c2cc(OCc3ncccc3F)nc3c2CCCC3)n1` [Example 217, (6-{2-[(3-Fluoropyridin-2-yl)methoxy]-5,6,7,8-tetrahydroquinolin-4-yl}pyrazin-2-yl)methanol], the figures for the inhibition in vivo at 3 mg/kg with male Slc:ICR mice [2] (setting [3]) and with male Slc:ICR mice [2] (setting [4]) were 38.3% and 40.4%, respectively.
Taken in the same sequence, the figures for `Fc1ccc(F)c(COc2cc(-c3cncnc3)c3c(n2)CCC3)n1` [Example 255, 2-[(3,6-Difluoropyridin-2-yl)methoxy]-4-(pyrimidin-5-yl)-6,7-dihydro-5H-cyclopenta[b]pyridine] were 31% and 26.4%.
As to `OCc1cncc(-c2cc(OCc3ccccn3)nc3c2CCC3)n1` [Example 268, {6-[2-(Pyridin-2-ylmethoxy)-6,7-dihydro-5H-cyclopenta[b]pyridin-4-yl]pyrazin-2-yl}methanol hydrochloride], in the assay on male Slc:ICR mice [1] (5% formalin), the inhibition in vivo at 1 mg/kg was determined as 53.9%.
On the same count and under the same terms, the value for `Nc1ncc(-c2cc(OCc3cccc(F)n3)nc3c2CCCC3)cn1` [Example 283, 5-{2-[(6-Fluoropyridin-2-yl)methoxy]-5,6,7,8-tetrahydroquinolin-4-yl}pyrimidin-2-amine hydrochloride] was 38.8%.
